Reference: PubChem BioAssay (NCI)
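Method: 48-hour compound exposure of cells in 96-well plates, five concentrations, linear interpolation of endpoints. TGI: concentration producing complete growth inhibition.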

Columns and labels:
Experiment in all cases: DTP human tumour cell line panel, 48 h
[1] = test system: SF-295 CNS
[2] = test system: MALME-3M melanoma
[3] = test system: COLO 205 colon
[4] = test system: M14 melanoma
[5] = test system: UO-31 renal
[6] = test system: OVCAR-5 ovarian
[7] = test system: 786-0 renal
[8] = test system: NCI-H23 lung
[9] = test system: SW-620 colon
[10] = test system: SK-MEL-28 melanoma
[11] = test system: UACC-62 melanoma
[12] = test system: CCRF-CEM leukemia
[13] = test system: MDA-N
[14] = test system: OVCAR-8 ovarian
[15] = test system: IGROV1 ovarian
[16] = test system: SNB-75 CNS
[17] = test system: MCF7 breast
[18] = test system: SK-OV-3 ovarian
[19] = test system: OVCAR-3 ovarian
[20] = test system: NCI-H226 lung

SMILES | TGI [1] | TGI [2] | TGI [3] | TGI [4] | TGI [5] | TGI [6] | TGI [7] | TGI [8] | TGI [9] | TGI [10] | TGI [11] | TGI [12] | TGI [13] | TGI [14] | TGI [15] | TGI [16] | TGI [17] | TGI [18] | TGI [19] | TGI [20]
CCOC(=O)c1cn2c(n1)sc1cc(Cl)ccc12 | > 100 µM | 99.1 µM | 60.8 µM | > 100 µM | > 100 µM | > 100 µM | 26.4 µM | > 100 µM | > 100 µM | > 100 µM | > 100 µM | > 100 µM | 12.6 µM | > 100 µM | > 100 µM | > 100 µM | > 100 µM | > 100 µM | 64.5 µM | > 100 µM
COc1cc(OC)c2c(C)cc(=O)oc2c1 | > 100 µM | > 100 µM | > 100 µM | > 100 µM | 79.5 µM | > 100 µM | > 100 µM | > 100 µM | > 100 µM | > 100 µM | > 100 µM | > 100 µM | > 100 µM | > 100 µM | > 100 µM | > 100 µM | > 100 µM | > 100 µM | > 100 µM | > 100 µM
CCOC(C)O[C@H]1C(=O)OCC1(C)C (stereo not given in full) | > 100 µM | > 100 µM | > 100 µM | > 100 µM | > 100 µM | > 100 µM | > 100 µM | > 100 µM | > 100 µM | > 100 µM | > 100 µM | > 100 µM | > 100 µM | > 100 µM | > 100 µM | > 100 µM | > 100 µM | > 100 µM | > 100 µM | > 100 µM
CCc1cc(Cc2cc(CC)c(NC(=O)C(=O)CC(=O)c3sc(-c4cccnc4)nc3C)c(CC)c2)cc(CC)c1NC(=O)C(=O)CC(=O)c1sc(-c2cccnc2)nc1C | > 100 µM | > 100 µM | > 100 µM | > 100 µM | > 100 µM | > 100 µM | > 100 µM | > 100 µM | > 100 µM | > 100 µM | > 100 µM | > 100 µM | > 100 µM | > 100 µM | > 100 µM | > 100 µM | > 100 µM | > 100 µM | > 100 µM | > 100 µM
Clc1ccc(-c2cc3nc4ccccc4nc3o2)cc1 | > 100 µM | > 100 µM | > 100 µM | > 100 µM | > 100 µM | > 100 µM | > 100 µM | > 100 µM | > 100 µM | > 100 µM | > 100 µM | > 100 µM | > 100 µM | > 100 µM | > 100 µM | 48.3 µM | > 100 µM | > 100 µM | > 100 µM | > 100 µM
COC(=O)c1cc2c(cc1CC(Cc1ccc3c(c1)CCCC3)C(=O)OC)CCCC2 (stereo not given) | > 100 µM | > 100 µM | > 100 µM | > 100 µM | > 100 µM | > 100 µM | > 100 µM | > 100 µM | > 100 µM | > 100 µM | > 100 µM | > 100 µM | > 100 µM | > 100 µM | > 100 µM | > 100 µM | > 100 µM | > 100 µM | > 100 µM | > 100 µM
O=c1c2ccccc2nc(Cc2nc(-c3ccc(Cl)cc3)cs2)n1-c1ccc(Cl)cc1 | > 100 µM | > 100 µM | > 100 µM | > 100 µM | > 100 µM | > 100 µM | > 100 µM | > 100 µM | > 100 µM | > 100 µM | > 100 µM | > 100 µM | > 100 µM | > 100 µM | > 100 µM | > 100 µM | > 100 µM | > 100 µM | > 100 µM | > 100 µM
CC(C)=CCC(O)[C@](C)(O)[C@H]1[C@H](O)C[C@@]2(C)[C@@H]3CCc4cc(O)c(OC5OC(CO)C(O)C(O)C5O)cc4C3(C)C(=O)C[C@]12C (stereo not given in full) | > 100 µM | > 100 µM | > 100 µM | > 100 µM | > 100 µM | > 100 µM | > 100 µM | > 100 µM | > 100 µM | > 100 µM | > 100 µM | > 100 µM | > 100 µM | > 100 µM | > 100 µM | > 100 µM | > 100 µM | > 100 µM | > 100 µM | > 100 µM
CN(C)CCCN=c1c2ccccc2n(O)c2ccccc12 | > 100 µM | > 100 µM | 26.9 µM | > 100 µM | > 100 µM | > 100 µM | > 100 µM | > 100 µM | > 100 µM | > 100 µM | > 100 µM | > 100 µM | > 100 µM | > 100 µM | > 100 µM | > 100 µM | > 100 µM | > 100 µM | > 100 µM | 72.7 µM
C1=Cc2cc3c(c4nccc(c24)N1)OCO3 | 22.3 µM | 26 µM | 23 µM | 54.5 µM | > 48.8 µM | > 69.4 µM | 21.2 µM | 26.3 µM | > 57.8 µM | > 71 µM | 32.2 µM | > 100 µM | 24.2 µM | > 46.8 µM | 8.24 µM | 28.7 µM | 16.1 µM | 55.9 µM | > 100 µM | 36.7 µM
O=C1CC(c2cccc([N+](=O)[O-])c2)C2(C(=O)NC(=O)NC2=O)C(c2cccc([N+](=O)[O-])c2)C1 (stereo not given) | > 100 µM | 61.8 µM | > 100 µM | > 100 µM | > 100 µM | > 100 µM | > 100 µM | > 100 µM | > 100 µM | > 100 µM | > 100 µM | > 100 µM | > 100 µM | > 100 µM | > 100 µM | > 100 µM | 44 µM | > 100 µM | 58.2 µM | > 100 µM
c1ccc(CNc2nncc3[nH]cnc23)cc1 | > 100 µM | > 100 µM | > 100 µM | > 100 µM | > 100 µM | > 100 µM | > 100 µM | > 100 µM | > 100 µM | > 100 µM | > 100 µM | > 100 µM | > 100 µM | > 100 µM | > 100 µM | > 100 µM | > 100 µM | > 100 µM | > 100 µM | > 100 µM
N#Cc1c(-c2ccccc2)[nH]c2ccc(Cl)cc2c1=O | 66.2 µM | > 100 µM | > 100 µM | > 100 µM | 44 µM | > 100 µM | > 100 µM | > 100 µM | > 100 µM | > 100 µM | > 100 µM | > 100 µM | > 100 µM | > 100 µM | > 100 µM | > 100 µM | > 100 µM | > 100 µM | > 100 µM | > 100 µM
CCN1CCN(c2nc3ccccc3c3c2CCOc2ccccc2-3)CC1 | > 63 µM | 35.3 µM | 37.2 µM | 38.4 µM | > 66 µM | > 65.2 µM | > 55.1 µM | > 100 µM | > 67.5 µM | 32.4 µM | 34.7 µM | > 83.6 µM | > 55.8 µM | > 75.5 µM | > 58.3 µM | > 62.6 µM | > 56.5 µM | > 70.7 µM | > 100 µM | > 77.9 µM
O=C1c2ccccc2C(=O)N1CCCCNOCCCN1C(=O)c2ccccc2C1=O | > 100 µM | > 100 µM | > 100 µM | > 100 µM | > 100 µM | > 100 µM | > 100 µM | > 100 µM | > 100 µM | > 100 µM | > 100 µM | > 100 µM | > 100 µM | > 100 µM | > 100 µM | > 100 µM | > 100 µM | > 100 µM | > 100 µM | > 100 µM
O=C(N/N=C\C=C\c1ccc([N+](=O)[O-])o1)C(=O)N/N=C\C=C\c1ccc([N+](=O)[O-])o1 | > 100 µM | > 100 µM | > 100 µM | > 100 µM | > 100 µM | > 100 µM | > 100 µM | > 100 µM | 58.8 µM | > 100 µM | > 100 µM | 3.55 µM | > 100 µM | 59.1 µM | > 100 µM | > 100 µM | > 100 µM | > 100 µM | 55 µM | > 100 µM
